Measurements as given in paper PMC3445516 (PLoS ONE, 2012).
Read-outs that look alike come from different tables or passages of the source. One block for each compound: values may come before it.

How the values were obtained:
Experiment in all cases: Ambit kinase profiling, competition binding
[1] = target: T1, DDR1 (Homo sapiens, UniProt Q08345)
T1 construct: purchased Ambit Biosciences (KINOMEscan)
Method: (§1) Also included in the kinase profile are four isoforms of PKC (δ, ε, η, θ) and eight isoforms of CAMKs (CAMKIα, δ, γ; CAMKIIα, β, δ, γ; CAMK4).
(§2) The global kinase profiling experiment was performed by Ambit Biosciences.

[2] = target: T2, EGFR(G719C) (Homo sapiens, UniProt P00533, G719C); conditions: for % Competition: 10 µM
T2 construct: purchased Ambit Biosciences (KINOMEscan)
Method: as §1, §2

[3] = target: T3, MEK6 (Homo sapiens, UniProt P52564)
T3 construct: purchased Ambit Biosciences (KINOMEscan)
T3 sequence (P52564 1-334): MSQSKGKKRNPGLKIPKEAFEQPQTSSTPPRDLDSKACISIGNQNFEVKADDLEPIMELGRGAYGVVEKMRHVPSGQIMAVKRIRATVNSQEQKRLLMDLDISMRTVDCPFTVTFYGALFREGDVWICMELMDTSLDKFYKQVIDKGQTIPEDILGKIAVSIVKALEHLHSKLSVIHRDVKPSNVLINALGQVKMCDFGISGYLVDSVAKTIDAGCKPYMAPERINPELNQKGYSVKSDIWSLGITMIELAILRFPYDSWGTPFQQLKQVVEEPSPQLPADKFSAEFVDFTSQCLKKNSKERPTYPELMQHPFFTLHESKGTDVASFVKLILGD
Method: as §1, §2

[4] = target: T4, PKC η (Homo sapiens, UniProt P24723); conditions: for competition: PKC η, 10 µM
T4 construct: purchased Ambit Biosciences (KINOMEscan)
T4 sequence (P24723 whole entry): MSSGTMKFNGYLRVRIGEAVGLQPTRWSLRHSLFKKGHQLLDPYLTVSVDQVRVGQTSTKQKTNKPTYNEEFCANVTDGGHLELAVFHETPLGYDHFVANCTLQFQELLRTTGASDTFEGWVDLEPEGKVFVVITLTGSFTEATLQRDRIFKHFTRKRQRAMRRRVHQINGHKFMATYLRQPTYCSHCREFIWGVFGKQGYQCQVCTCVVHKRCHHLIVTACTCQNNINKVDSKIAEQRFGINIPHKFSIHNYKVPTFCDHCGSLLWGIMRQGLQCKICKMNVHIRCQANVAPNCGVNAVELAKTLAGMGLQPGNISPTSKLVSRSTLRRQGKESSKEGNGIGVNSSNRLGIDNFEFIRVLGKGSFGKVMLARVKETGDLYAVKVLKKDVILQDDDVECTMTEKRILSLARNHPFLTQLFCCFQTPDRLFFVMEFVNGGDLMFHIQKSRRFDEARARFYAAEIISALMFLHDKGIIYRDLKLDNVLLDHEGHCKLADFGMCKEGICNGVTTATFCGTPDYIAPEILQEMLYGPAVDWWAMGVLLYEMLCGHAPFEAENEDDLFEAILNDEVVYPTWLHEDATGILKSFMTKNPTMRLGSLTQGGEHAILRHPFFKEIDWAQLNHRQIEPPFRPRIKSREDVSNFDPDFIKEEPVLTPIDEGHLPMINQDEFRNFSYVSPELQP
Method: as §1, §2

[5] = target: T5, STK16 (Homo sapiens, UniProt O75716)
T5 construct: purchased Ambit Biosciences (KINOMEscan)
T5 sequence (O75716 whole entry): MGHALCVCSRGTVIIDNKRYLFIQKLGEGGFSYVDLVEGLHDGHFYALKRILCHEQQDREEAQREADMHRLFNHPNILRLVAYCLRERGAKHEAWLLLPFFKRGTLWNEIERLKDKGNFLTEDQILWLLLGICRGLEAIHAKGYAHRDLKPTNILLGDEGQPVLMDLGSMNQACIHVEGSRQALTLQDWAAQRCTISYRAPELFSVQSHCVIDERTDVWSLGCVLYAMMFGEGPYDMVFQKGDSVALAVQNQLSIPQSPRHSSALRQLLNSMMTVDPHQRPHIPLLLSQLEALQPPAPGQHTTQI
Method: as §1, §2

[6] = target: T6, JNK1 (Homo sapiens, UniProt P45983); conditions: for % Competition: 10 µM
T6 construct: purchased Ambit Biosciences (KINOMEscan)
T6 sequence (P45983 whole entry): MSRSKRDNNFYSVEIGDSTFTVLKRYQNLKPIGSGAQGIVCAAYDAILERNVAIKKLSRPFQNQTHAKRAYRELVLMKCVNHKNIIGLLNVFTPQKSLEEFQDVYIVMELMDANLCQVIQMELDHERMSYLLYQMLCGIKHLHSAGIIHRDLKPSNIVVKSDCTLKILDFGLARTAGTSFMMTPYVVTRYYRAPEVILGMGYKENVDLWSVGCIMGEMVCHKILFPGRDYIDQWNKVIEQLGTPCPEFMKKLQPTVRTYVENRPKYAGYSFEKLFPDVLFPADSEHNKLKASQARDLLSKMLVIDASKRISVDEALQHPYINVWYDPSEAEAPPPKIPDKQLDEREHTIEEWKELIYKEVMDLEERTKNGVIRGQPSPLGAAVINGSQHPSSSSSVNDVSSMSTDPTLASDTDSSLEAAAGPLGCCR
Method: as §1, §2

[7] = target: T7, EPHB3 (Homo sapiens, UniProt P54753)
T7 construct: purchased Ambit Biosciences (KINOMEscan)
T7 sequence (P54753 34-998): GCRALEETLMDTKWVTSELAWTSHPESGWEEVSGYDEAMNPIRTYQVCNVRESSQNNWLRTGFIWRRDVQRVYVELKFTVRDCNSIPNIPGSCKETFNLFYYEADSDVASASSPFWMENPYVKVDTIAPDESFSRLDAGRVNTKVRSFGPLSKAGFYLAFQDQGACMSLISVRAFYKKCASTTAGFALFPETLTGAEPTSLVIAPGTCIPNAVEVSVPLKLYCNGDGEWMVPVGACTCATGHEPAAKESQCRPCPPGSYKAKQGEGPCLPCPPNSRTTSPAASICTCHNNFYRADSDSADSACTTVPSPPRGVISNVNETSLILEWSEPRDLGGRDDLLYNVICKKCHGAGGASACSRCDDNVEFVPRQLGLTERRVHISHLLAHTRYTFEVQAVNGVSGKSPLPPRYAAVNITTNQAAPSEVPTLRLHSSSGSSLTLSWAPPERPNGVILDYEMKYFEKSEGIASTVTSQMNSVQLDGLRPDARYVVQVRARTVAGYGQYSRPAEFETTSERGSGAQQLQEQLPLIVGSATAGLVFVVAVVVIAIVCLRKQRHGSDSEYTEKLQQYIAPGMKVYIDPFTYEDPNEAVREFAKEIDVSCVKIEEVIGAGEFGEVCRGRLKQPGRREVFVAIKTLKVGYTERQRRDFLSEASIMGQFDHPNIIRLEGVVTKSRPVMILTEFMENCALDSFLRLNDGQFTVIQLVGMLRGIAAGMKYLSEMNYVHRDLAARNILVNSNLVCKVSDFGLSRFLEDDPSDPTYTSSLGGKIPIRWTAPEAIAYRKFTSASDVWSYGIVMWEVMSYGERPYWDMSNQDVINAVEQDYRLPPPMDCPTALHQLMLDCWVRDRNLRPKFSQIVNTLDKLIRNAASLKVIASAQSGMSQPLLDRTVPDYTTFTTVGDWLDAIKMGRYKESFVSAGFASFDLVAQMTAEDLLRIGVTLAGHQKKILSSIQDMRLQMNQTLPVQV
Method: as §1, §2

[8] = target: T8, CSNK1A1L (Homo sapiens, UniProt Q8N752)
T8 construct: purchased Ambit Biosciences (KINOMEscan)
T8 sequence (Q8N752 1-337): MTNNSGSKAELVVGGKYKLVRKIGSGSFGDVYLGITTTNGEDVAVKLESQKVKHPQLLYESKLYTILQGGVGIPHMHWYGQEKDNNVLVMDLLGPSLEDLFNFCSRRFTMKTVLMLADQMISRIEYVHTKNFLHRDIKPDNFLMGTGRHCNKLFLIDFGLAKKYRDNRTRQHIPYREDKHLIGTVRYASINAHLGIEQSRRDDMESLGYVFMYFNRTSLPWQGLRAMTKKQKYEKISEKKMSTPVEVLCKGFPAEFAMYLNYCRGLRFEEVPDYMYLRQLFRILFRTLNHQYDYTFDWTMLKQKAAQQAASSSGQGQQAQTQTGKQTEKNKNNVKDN
Method: as §1, §2

T1 sequence (Q08345 19-913): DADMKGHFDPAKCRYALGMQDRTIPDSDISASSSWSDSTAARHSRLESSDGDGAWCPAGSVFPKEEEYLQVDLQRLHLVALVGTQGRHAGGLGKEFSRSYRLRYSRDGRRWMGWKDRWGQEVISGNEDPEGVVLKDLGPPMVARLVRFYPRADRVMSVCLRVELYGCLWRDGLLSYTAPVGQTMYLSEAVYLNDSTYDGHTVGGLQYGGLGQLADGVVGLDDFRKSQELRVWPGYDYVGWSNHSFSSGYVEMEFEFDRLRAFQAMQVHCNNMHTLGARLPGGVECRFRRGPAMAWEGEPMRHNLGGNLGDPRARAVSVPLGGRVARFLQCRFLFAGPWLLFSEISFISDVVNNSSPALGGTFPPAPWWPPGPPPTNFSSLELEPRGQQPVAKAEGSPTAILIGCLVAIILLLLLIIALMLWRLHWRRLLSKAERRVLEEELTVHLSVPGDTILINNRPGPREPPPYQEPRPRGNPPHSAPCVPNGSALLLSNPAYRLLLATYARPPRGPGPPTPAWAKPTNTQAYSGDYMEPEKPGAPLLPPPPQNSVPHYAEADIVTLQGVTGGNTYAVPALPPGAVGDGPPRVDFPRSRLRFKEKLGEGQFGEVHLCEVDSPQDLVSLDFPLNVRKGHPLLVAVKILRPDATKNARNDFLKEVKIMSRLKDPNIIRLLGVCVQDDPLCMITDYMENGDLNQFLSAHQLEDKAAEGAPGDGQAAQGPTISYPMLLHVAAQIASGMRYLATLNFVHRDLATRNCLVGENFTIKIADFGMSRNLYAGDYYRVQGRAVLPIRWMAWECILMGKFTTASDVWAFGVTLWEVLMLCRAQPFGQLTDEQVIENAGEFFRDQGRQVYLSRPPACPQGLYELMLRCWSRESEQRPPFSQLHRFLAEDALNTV

- inhibition at 10 µM ([1]; DDR1, 10 µM, read-out: % Competition): 100%
- % Competition [2]: 99%
- inhibition at 10 µM ([3]; MEK6, 10 µM, read-out: % Competition): 66%
- competition [4]: < 50%
- inhibition at 10 µM ([5]; STK16, 10 µM, read-out: % Competition): 96%
- % Competition [6]: 100%
- inhibition at 10 µM ([7]; EPHB3, 10 µM, read-out: % Competition): 82%
- inhibition at 10 µM ([8]; CSNK1A1L, 10 µM, read-out: % Competition): 95%
SMILES: Fc1ccc(-c2c(-c3ccncc3)[nH]c3nccnc23)cc1 [Compound 122]

SMILES: CC(O)CNc1cc(-c2[nH]c3cccnc3c2-c2ccc(F)cc2)ccn1 (stereo not drawn) [Compound 140]
- inhibition at 10 µM ([1]; read-out: % Competition): 98%
- % Competition [2]: 87%
- inhibition at 10 µM ([3]; read-out: % Competition): < 50%
- competition [4]: < 50%
- inhibition at 10 µM ([5]; read-out: % Competition): < 50%
- % Competition [6]: 100%
- inhibition at 10 µM ([7]; read-out: % Competition): < 50%
- inhibition at 10 µM ([8]; read-out: % Competition): 86%

- inhibition at 10 µM ([1]; DDR1, compound concentration 10 uM, read-out: Percent Competition): 100%
- Percent Competition ([2]; compound concentration 10 uM): 99%
- inhibition at 10 µM ([3]; MEK6, compound concentration 10 uM, read-out: Percent Competition): 66%
- inhibition at 10 µM ([4]; PRKCH, compound concentration 10 uM, read-out: Percent Competition): < 50%
- inhibition at 10 µM ([5]; STK16, compound concentration 10 uM, read-out: Percent Competition): 96%
- Percent Competition ([6]; compound concentration 10 uM): 100%
- inhibition at 10 µM ([7]; EPHB3, compound concentration 10 uM, read-out: Percent Competition): 82%
- inhibition at 10 µM ([8]; CSNK1A1L, compound concentration 10 uM, read-out: Percent Competition): 95%
SMILES: Fc1ccc(-c2c(-c3ccncc3)[nH]c3nccnc23)cc1 [RO1155697-000-005]
